According to ChEMBL document CHEMBL5303765, “Data for DCP probe BAY-7081” (2023):

What was measured:
Peregrin (Homo sapiens) = biological target: T1, Peregrin (Homo sapiens) (UniProt P55201); assay: BRPF1 SGC Tm panel (DSF); conditions: for ΔTm: Compound concentration 10.0 uM
T1 sequence (whole entry): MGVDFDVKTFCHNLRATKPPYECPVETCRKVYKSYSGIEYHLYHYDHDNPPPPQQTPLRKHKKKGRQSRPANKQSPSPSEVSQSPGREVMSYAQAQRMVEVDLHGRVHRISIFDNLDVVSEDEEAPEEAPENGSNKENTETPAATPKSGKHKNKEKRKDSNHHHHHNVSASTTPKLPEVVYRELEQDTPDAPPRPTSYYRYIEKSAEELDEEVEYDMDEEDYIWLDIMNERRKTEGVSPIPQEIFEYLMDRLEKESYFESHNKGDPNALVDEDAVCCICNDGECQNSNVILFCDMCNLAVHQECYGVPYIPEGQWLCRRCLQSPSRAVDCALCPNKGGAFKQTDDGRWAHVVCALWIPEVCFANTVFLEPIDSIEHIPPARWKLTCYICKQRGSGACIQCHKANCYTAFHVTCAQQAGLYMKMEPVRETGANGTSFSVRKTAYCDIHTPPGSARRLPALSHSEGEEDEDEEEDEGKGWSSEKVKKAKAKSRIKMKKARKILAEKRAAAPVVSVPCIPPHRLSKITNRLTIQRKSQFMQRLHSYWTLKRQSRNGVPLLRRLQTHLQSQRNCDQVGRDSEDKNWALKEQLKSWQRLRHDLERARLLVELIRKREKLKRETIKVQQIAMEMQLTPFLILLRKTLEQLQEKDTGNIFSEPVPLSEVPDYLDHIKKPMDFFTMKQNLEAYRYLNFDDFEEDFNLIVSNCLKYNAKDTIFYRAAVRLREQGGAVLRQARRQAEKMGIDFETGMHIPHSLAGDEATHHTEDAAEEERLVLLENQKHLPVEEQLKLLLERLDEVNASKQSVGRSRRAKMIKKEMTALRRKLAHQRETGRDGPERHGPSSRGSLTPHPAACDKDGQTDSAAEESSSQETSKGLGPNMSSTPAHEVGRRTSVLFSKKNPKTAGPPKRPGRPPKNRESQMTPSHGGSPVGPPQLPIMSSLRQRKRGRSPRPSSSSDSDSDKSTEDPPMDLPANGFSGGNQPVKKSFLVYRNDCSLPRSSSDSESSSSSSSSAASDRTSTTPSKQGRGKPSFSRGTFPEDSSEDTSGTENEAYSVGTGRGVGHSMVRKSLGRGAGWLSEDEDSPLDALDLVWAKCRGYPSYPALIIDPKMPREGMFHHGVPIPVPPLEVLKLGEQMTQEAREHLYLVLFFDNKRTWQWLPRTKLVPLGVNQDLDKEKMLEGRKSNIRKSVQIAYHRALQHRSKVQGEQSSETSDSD

[1] = biological target: Alpha-1D adrenergic receptor (Homo sapiens) (UniProt P25100); conditions: Compound concentration 10.0 uM
Chain of Alpha-1D adrenergic receptor (Homo sapiens) (P25100 whole entry): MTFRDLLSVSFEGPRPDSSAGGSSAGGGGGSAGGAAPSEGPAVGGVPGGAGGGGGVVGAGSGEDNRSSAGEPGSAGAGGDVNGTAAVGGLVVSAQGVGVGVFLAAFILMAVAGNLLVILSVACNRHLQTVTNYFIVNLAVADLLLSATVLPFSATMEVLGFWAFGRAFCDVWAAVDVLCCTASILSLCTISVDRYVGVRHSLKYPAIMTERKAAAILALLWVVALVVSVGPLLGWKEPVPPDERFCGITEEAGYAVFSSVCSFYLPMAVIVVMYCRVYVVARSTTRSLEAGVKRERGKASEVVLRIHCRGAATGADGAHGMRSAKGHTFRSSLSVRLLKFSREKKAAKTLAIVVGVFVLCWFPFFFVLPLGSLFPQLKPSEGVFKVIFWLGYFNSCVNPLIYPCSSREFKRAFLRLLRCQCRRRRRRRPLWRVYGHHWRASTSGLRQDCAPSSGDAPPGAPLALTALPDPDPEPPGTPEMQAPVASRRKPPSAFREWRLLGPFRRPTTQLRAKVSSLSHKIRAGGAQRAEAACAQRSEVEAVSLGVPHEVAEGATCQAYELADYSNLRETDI

[2] = biological target: T2, Serine/threonine-protein kinase 4 (Homo sapiens) (UniProt Q13043); assay: STK4 SGC Tm panel (DSF); conditions: for ΔTm: Compound concentration 10.0 uM
T2 sequence (whole entry): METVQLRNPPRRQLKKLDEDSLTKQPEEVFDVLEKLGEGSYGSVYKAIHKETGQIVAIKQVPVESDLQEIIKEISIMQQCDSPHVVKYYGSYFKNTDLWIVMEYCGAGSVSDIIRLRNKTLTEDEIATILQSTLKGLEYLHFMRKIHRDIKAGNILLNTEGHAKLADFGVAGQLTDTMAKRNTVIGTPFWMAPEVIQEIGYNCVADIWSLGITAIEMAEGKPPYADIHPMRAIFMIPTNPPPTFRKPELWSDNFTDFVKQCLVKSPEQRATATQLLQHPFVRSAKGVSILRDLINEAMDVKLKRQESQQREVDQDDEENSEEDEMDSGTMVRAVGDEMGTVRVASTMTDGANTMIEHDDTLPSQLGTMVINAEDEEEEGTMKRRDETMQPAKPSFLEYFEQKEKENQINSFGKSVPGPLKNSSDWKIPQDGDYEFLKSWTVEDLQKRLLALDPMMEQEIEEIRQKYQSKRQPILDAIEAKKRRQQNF

[3] = biological target: T3, Serine/threonine-protein kinase 17A (Homo sapiens) (UniProt Q9UEE5); assay: STK17A SGC Tm panel (DSF); conditions: for ΔTm: Compound concentration 10.0 uM
T3 sequence (whole entry): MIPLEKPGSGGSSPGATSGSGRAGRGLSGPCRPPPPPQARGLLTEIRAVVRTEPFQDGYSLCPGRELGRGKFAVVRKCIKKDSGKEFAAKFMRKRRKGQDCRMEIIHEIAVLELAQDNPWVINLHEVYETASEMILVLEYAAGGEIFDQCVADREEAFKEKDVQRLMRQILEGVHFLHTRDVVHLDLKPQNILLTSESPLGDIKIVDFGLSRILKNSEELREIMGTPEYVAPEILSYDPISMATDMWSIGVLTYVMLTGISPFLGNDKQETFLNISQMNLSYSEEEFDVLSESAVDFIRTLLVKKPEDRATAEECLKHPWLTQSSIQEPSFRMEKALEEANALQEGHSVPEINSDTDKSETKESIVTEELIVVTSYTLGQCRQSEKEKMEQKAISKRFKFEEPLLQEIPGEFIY

[4] = biological target: T4, Calcium/calmodulin-dependent protein kinase type IV (Homo sapiens) (UniProt Q16566); assay: CAMK4 SGC Tm panel (DSF); conditions: for ΔTm: Compound concentration 10.0 uM
T4 sequence (whole entry): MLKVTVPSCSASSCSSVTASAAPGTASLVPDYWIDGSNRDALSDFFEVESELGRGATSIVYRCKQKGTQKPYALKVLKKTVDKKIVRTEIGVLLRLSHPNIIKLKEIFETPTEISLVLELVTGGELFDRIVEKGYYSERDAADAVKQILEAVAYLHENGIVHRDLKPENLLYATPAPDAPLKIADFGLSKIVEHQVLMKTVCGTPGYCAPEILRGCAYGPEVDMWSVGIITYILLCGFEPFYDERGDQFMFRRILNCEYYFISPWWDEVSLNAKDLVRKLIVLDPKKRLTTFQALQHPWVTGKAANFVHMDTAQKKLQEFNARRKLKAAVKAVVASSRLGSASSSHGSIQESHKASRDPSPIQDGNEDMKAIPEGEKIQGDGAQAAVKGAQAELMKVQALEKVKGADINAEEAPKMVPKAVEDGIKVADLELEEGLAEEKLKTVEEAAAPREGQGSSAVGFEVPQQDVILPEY

[5] = biological target: Death-associated protein kinase 3 (Homo sapiens) (UniProt O43293); assay: DAPK3 SGC Tm panel (DSF); conditions: for ΔTm: Compound concentration 10.0 uM
Chain of Death-associated protein kinase 3 (Homo sapiens) (O43293 whole entry, looked up): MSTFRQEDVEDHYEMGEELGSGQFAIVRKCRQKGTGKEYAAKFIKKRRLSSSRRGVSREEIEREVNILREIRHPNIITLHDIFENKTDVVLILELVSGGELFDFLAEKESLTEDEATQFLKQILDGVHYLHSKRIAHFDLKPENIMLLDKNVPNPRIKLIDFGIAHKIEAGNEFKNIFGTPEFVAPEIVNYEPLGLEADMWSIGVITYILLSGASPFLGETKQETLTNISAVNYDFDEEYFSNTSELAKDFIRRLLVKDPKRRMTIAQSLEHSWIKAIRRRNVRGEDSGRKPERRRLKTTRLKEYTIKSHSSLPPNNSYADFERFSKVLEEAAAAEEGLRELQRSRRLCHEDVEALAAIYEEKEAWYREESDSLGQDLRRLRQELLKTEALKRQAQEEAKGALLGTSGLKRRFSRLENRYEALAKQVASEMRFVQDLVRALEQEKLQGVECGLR

Row | SMILES | delta Tm Staurosporine positive control (Peregrin (Homo sapiens)) | ΔTm (Peregrin (Homo sapiens)) | inhibition [1] | delta Tm Staurosporine positive control [2] | ΔTm [2] | delta Tm Staurosporine positive control [3] | ΔTm [3] | delta Tm Staurosporine positive control [4] | ΔTm [4] | delta Tm Staurosporine positive control [5] | ΔTm [5]
1 | CCC[C@@H]1CNCc2c1[nH]c(=O)c(C#N)c2N1CCC2(CC1)CC2 | -0.107 | -0.426 | -2.05% | 16.2 | -0.519 | 11.8 | -1.01 | 8.45 | -1.12 | 16.6 | 0.29
2 | CCC[C@H]1CNCc2c1[nH]c(=O)c(C#N)c2N1CCC2(CC1)CC2 | -0.107 | -0.754 | 0.14% | 16.2 | -0.568 | 11.8 | -1.05 | 8.45 | -0.566 | 16.6 | 0.222
